The values below come from publication PMC8092647, “Assessment of carbapenems in a mouse model of Mycobacterium tuberculosis infection” (PLoS ONE, 2021).

Entries after “also recorded” stand apart in the source; their conditions may differ. Where two headings read alike, the source gives them in different places.

As usually defined, the MIC is the smallest concentration in the dilution series that meets the test's criterion for growth inhibition. One may read the AUC(0-t) as the area under the concentration-time curve up to a stated or last time point. A low value points to less exposure. One may read the Cmax as the peak of the concentration-time curve. What is called half-life is the time needed for the level to fall by half in the phase considered.

One data set relates to M. tuberculosis. Set-up: method as in Chambers et al. [7] (imipenem), Kumar et al. [6] (biapenem). The note with it: acute M. tuberculosis infection model in mice; ref Chambers et al. [7] (imipenem), Kumar et al. [6] (biapenem); cited from earlier work.
For data set [1], the system named is M. tuberculosis H37Rv. As to the kind of experiment: Minimum inhibitory concentration (MIC) by micro broth dilution, read by visual inspection of the bacterial pellet after 14 d. Format: cell-based. The conditions noted are these: Mycobacterium tuberculosis, 336 h. Background: Broth dilution looks for growth in wells or tubes with falling amounts of substance.
Data set [2] in a line: Mouse plasma pharmacokinetics after a single 25 mg/kg sc dose (LC-MS, non-compartmental model). The note with it: for %T>MIC: female BALB/c mice, single 25 mg/kg sc, percentage of time above the MIC over 3 h; for AUC(0-t) / Cmax / half-life / concentration at 3 h: female, BALB/c, mouse, plasma, sc, 25 mg/kg.
For data set [3] the following is noted: female, BALB/c, mouse, in vivo, sc, 25 mg/kg.
Another data set in a line: in vivo. The conditions noted are these: female, BALB/c, mouse, sc, 25 mg/kg.
The test system of data set [4] is M. tuberculosis H37Rv. Nature of the data set: Sub-acute mouse model of M. tuberculosis infection, lung CFU burden. The note with it: for onset of activity in infected mice (reduction of lung burden at one week vs no-treatment group): 400 mg/kg bid sc + 75 mg/kg clavulanate, little or no reduction at one week; for efficacy in comparison (lung M. tuberculosis burden): 1 and 3 weeks. Format: in vivo, BALB/c mice.

The mark [5] stands for this setting: M. tuberculosis H37Rv, 7H9 broth without Tween-80, 14 d, drug alone without clavulanate, read-out: MIC.
Where [6] appears, read: carbapenems 400 mg/kg bid sc + 75 mg/kg clavulanate, rifampin 10 mg/kg once daily orally.

Turning to `C[C@@H](O)[C@H]1C(=O)N2C(C(=O)[O-])=C(SC3Cn4cnc[n+]4C3)[C@H](C)[C@H]12` (stereo partly drawn) [Biapenem, reference compound], the “onset of activity in infected mice” value in the data set with M. tuberculosis is reported as “delayed activity”. For the same compound, the MIC with M. tuberculosis H37Rv [1] (setting [5]) was 2.5 to 5 µg/mL. Also, in data set [2], the “%T>MIC” value is reported as 33–100%, the area under the curve AUC(0-t) worked out at 63300 ng·h/mL, the highest level (Cmax) was 55600 ng/mL and the half-life was 17.3 min.

`C[C@@H](O)[C@H]1C(=O)N2C(C(=O)O)=C(SCC(=O)OC(C)(C)C)[C@H](C)[C@H]12` [JSF-2196]: the “%T>MIC” value in data set [3] is given as 17–33%. In the data set “in vivo”, this compound showed an AUC(0-t) of 9060 ng·h/mL, a Cmax of 20500 ng/mL and a half-life of 13.8 min. Besides, the MIC in the data set on M. tuberculosis H37Rv [1] (setting [5]) lay in the range of 2 to 4 µg/mL.

Regarding `CSC1=C(C(=O)[O-])N2C(=O)[C@H]([C@@H](C)O)[C@H]2[C@H]1C.[Na+]` [JSF-2204, Sodium (4R,5S,6S)-6-((R)-1-hydroxyethyl)-4-methyl-3-(methylthio)-7-oxo-1-azabicyclo[3.2.0]hept-2-ene-2-carboxylate], the “onset of activity in infected mice (reduction of lung burden at one week vs no-treatment group)” value in the data set with M. tuberculosis H37Rv [4] is on record as “delayed activity”. Moreover, in the data set on M. tuberculosis H37Rv [4] (setting [6]), the “efficacy in comparison (lung M. tuberculosis burden)” value is recorded as “efficacy equivalent to that of meropenem; also recorded: inferior to rifampin; also recorded: statistically indistinguishable efficacy; also recorded: statistically equivalent performance to meropenem”. In the data set with M. tuberculosis H37Rv [1] (H37RV), this compound gave an MIC of 0.25 to 0.5 µg/mL. In addition, in data set [2], the “%T>MIC” value was 33–100%, the area under the curve AUC(0-t) came to 23000 ng·h/mL and the peak concentration (Cmax) is 63000 ng/mL.

For `C[C@@H](O)[C@H]1C(=O)N2C(C(=O)O)=C(SCC(F)(F)F)[C@H](C)[C@H]12` [JSF-2415], the “%T>MIC” value in data set [3] is given as 17–33%. In the data set “in vivo”, this compound had an AUC(0-t) of 12500 ng·h/mL, a Cmax of 34800 ng/mL and a half-life of 14.5 min. In addition, the MIC in the data set with M. tuberculosis H37Rv [1] (setting [5]) lay in the range of 4 to 8 µg/mL.

Take `C[C@@H](O)[C@H]1C(=O)N2C(C(=O)[O-])=C(SCCc3ccccc3)[C@H](C)[C@H]12.[Na+]` [JSF-2417, Sodium (4R,5S,6S)-6-((R)-1-hydroxyethyl)-4-methyl-7-oxo-3-(phenethylthio)-1-azabicyclo[3.2.0]hept-2-ene-2-carboxylate]: the “onset of activity in infected mice (reduction of lung burden at one week vs no-treatment group)” value in the data set on M. tuberculosis H37Rv [4] is “delayed activity”. In addition, the “efficacy in comparison (lung M. tuberculosis burden)” value in the data set with M. tuberculosis H37Rv [4] (setting [6]) is “inferior”. The same compound registered a minimum inhibitory concentration (MIC) with M. tuberculosis H37Rv [1] (H37RV) of 2 to 4 µg/mL. In data set [2], the “%T>MIC” value is on record as 8.3–33%, the AUC(0-t) worked out at 5740 ng·h/mL, the Cmax was 5190 ng/mL and the concentration at 3 h stood at 262 ng/mL. The same compound showed a half-life in data set [2] of 38.8 min.

Compound `C[C@@H](O)[C@H]1C(=O)N2C(C(=O)[O-])=C(SCCC(=O)N3CCOCC3)[C@H](C)[C@H]12.[Na+]` [JSF-2700, Sodium (4R,5S,6S)-6-((R)-1-hydroxyethyl)-4-methyl-3-((3-morpholino-3-oxopropyl)thio)-7-oxo-1-azabicyclo[3.2.0]hept-2-ene-2-carboxylate] had an MIC with M. tuberculosis H37Rv [1] (H37RV) of 2 to 4 µg/mL. In addition, in data set [2], the “%T>MIC” value is listed as 8.3–33%, the area under the curve AUC(0-t) worked out at 5930 ng·h/mL, the peak level (Cmax) was 17400 ng/mL and the concentration at 3 h was found to be 6 ng/mL. Further, the half-life in data set [2] is 15.5 min.

Turning to `C[C@@H](O)[C@H]1C(=O)N2C(C(=O)O)=C(S[C@@H]3CN[C@H](C(=O)N(C)C)C3)[C@H](C)[C@H]12` [Meropenem, reference compound], the “onset of activity in infected mice (reduction of lung burden at one week vs no-treatment group)” value in the data set with M. tuberculosis H37Rv [4] is given as “delayed activity”. The MIC in the data set on M. tuberculosis H37Rv [1] (setting [5]) was in the range of 4 to 8 µg/mL. Moreover, in data set [2], the “%T>MIC” value is below 8.3%, the AUC(0-t) is 613 ng·h/mL, the concentration peaked (Cmax) at 1340 ng/mL and the half-life is 27.8 min.

`C[C@@H](O)[C@H]1C(=O)N2C(C(=O)O)=C(SCCN=CN)C[C@H]12` [imipenem]: in the data set on M. tuberculosis, the “onset of activity in infected mice” value is given as “delayed activity”.

Turning to `CO[C@H]1/C=C/O[C@@]2(C)Oc3c(C)c(O)c4c(O)c(c(/C=N/N5CCN(C)CC5)c(O)c4c3C2=O)NC(=O)/C(C)=C\C=C\[C@H](C)[C@H](O)[C@@H](C)[C@@H](O)[C@@H](C)[C@H](OC(C)=O)[C@@H]1C` [rifampin, reference compound], the “effect on lung bacterial burden after one week of dosing” value in the data set with M. tuberculosis H37Rv [4] (rifampin 10 mg/kg once daily orally, 1 week) was “bacteriostatic effect”. Besides, the “effect on lung bacterial burden after 3 weeks of dosing” value in the data set on M. tuberculosis H37Rv [4] (rifampin 10 mg/kg once daily orally, carbapenems 400 mg/kg bid sc + 75 mg/kg clavulanate, 3 weeks) was “bacteriostatic effect”.
